Test system: mRORγt
Test: shRNA inhibition of mRORγt expression in AKR1 cells, monitored by Western blot
Type: cell-based, mouse
Settings: AKR1 cells infected with retrovirus encoding the shRNA vs empty retroviral vector, HMG-1 loading control
Text: FIG. 42. Delivery of siRNA Hairpins by a Retroviral vector. […] After the AKR1 cells were infected with these vectors, mRORγt expression was monitored by Western blot. HMG-1 was used as an internal loading control. […] The effect lasted for at least two to three weeks, as shown in the lower panel.
Two shRNA molecules were generated using the DNA sequence of SEQ ID NO: 3 (mouse RORγt). In particular, the nucleotides from position 358-378 of SEQ ID NO: 3 and from position 1269-1289 of SEQ ID NO: 3 (mouse RORγt) were used to generate shRNA molecules. These sequences are as follows:
When tested for the ability to inhibit expression of RORγt, as well as expression of a target molecule for RORgt, significant inhibition of expression was observed. (See FIGS. 42 and 43).

Row | Sequence | inhibition of RORγt expression
1 | GGAACTGGCTTTCCATCATCA (expressed or natural sequence) [SEQ ID NO: 10] | shown to inhibit the expression of RORγt
2 | GGAGCAGACACACTTACATAC (chemistry not given here) [SEQ ID NO: 9] | shown to inhibit the expression of RORγt
